Reference: US20260055150A1, “GRAIL-1 PEPTIDE PRODUCTS AND METHODS” (REGENTS OF THE UNIVERSITY OF MICHIGAN, priority 2022, published 2026)
pIC50: −log10 of the molar value. Several values for one entry are separate records, joined by “and”; a condition that tells them apart may be missing. Equal entries are not always repeated. Entries after “also recorded” stand apart in the source; their conditions may differ. Where a SMILES comes first, the peptide text is derived from it. Where no end group is shown, it is not given here.

Legend:
[1] = biological target: T1, claudin-1 (Homo sapiens, UniProt O95832); assay: In vivo fluorescence imaging with RTS*-Cy5.5; parameters: species or system mouse; conditions: after intravenous administration
T1 construct: endogenous in cells; host or cells: colonic PDO implanted in mouse rectum
T1 sequence (O95832 1-211): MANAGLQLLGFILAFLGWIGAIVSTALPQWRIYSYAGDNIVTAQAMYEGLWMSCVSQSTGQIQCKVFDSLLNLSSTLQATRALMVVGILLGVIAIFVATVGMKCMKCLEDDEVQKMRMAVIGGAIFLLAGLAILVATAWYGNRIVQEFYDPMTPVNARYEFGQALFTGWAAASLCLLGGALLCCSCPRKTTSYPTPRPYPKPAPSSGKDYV
Experimental: (A) Photo of is shown of a flexible fiber-coupled side-view confocal endomicroscope. […] Confocal images show claudin-1 expression from (D) dysplasia and (E) normal colonic mucosa with subcellular resolution. Images were collected ˜1 hour post-injection of RTS*-Cy5.5. Crypt structures and individual cells can be identified. Key: crypt (arrow), tight junction (arrowhead), lumen (I), colonocyte (c), goblet cell (g), lamina propria (lp).
This instrument has a diameter of 4.2 mm, which is small enough to perform repetitive in vivo imaging in mouse colon. The focusing optics provide a spatial resolution of 1.2 μm. A rigid wide-field endoscope was used first to collect white light (WL) and NIR fluorescence (FL) images to identify the approximate location of the implanted PDOs. Landmarks defined by the clockwise location of and distance from the anus to the distal tip of the endoscope were used to approximately locate the implanted PDOs for collection of confocal images. Tumor size and volume were estimated using a calibrated gauge passed through the instrument channel of the rigid endoscope. […] Differences in the spatial pattern of target expression between dysplasia and surrounding normal mucosa for colonic PDOs can be seen (FIG. 18D,E).

[2] = test system: DNAJA1; assay: Peptide pull down assay with recombinant DNAJA1; assay type: binding; conditions: NHS activated Sepharose beads, Western blot
Experimental: Briefly, 1 mg of peptide was dissolved in 1 ml of coupling buffer (0.2 M NaHCO3, 0.5 M NaCl, pH 8.3). Peptides were conjugated to NHS-activated resin by incubating 100 μL NHS bead slurry with 200 μL peptide solution for 2 hours at room temperature (RT). Unbound sites were blocked with quenching buffer (0.5 M ethanolamine, 500 mM NaCl). Resin peptide conjugates were washed once with low pH (0.1 M acetate, 0.5 M NaCl, pH 5) and high pH buffer (0.1 M Tris HCl, pH 8.0) and equilibrated with lysis buffer 50 mM HEPES, 150 mM NaCl, 0.2% NP-40, protease inhibitor cocktail, pH 7.5. Purified HSP40 protein was procured from […] (cat #). Purified protein was diluted in lysis buffer. Approximately 40 nM protein was incubated with peptide coupled to NHS beads and incubated for 2 hours at RT. Unbound proteins were removed by centrifugation and beads were washed with washing buffer (50 mM HEPES, 300 mM NaCl, 0.2% NP-40, pH 7.5). Bound proteins were obtained by boiling beads with 1× Laemmli buffer. […] To confirm, thermal stability assays (TSA) were performed. TSA was carried out using QuantStudio™ 7 Flex Real-Time PCR System. […] The plates were covered with optical foil during the reaction in the thermal cycler. […] The Instrument was programmed in the melt curve mode with ROX reagent detection and Fast speed run. The reporter was selected as Rox and none for quencher. Each melt curve was programmed as follows: 25° C. for 15 sec, followed by increase in temperature at the speed of 0.03° C./s up to 95° C. and finally 95° C. for 15 sec. The raw data was exported to Protein Thermal Shift™ Software (Applied Biosystems) for analysis. Melting temperature was calculated using the melt curve. […] To further test functionality, an in vitro ATPase activity assay was performed using purified Hsp40 and Hsp70 proteins. […] Pep 1 was redesignated “Pep J”.

[3] = test system: mutant p53-R175H; assay: Immunoblotting of mutant p53 steady state levels in CpD cells; assay type: cell-based; conditions: CpD cells transfected with DDK-tagged p53R175H; peptides 20 mM for 6 h
Experimental: CpD cells overexpressing mutant p53 were transfected with DDK-tagged p53R175H mutant. Cells were then treated with indicated peptides ([…] for 6 h).
Consequently, the effect of all thirteen peptides on mutant p53 steady state levels was tested.

[4] = test system: patient-derived organoids (PDOs); assay: Growth and survival of patient derived organoids in vitro; assay type: cell-based, human
[5] = test system: OE33, OE 19 and Flo1 esophageal adenocarcinoma (EAC) cells; assay: Radiosensitization clonogenic assay of EAC cells; assay type: cell-based; conditions: 20 μM for 24 hours, then 0-8 Gy
Experimental: OE33, OE 19 and Flo1 esophageal adenocarcinoma (EAC) cells were plated and after overnight incubation treated with 20 μM of Pep J for an additional 24 hours. Following, cells were irradiated with different doses (0, 2, 4, 6, 8 Gy) of radiation. Cells were then incubated for 24 hours prior to plating at a clonal density to perform clonogenic assays.

[6] = test system: mutant p53
Experimental: The effect of Pep J and simvastatin treatment either alone or in combination on wild type and mutant p53 was tested in BE/EAC cells present in ten established PDOs grown in vitro. Scrambled Pep J was used as a negative control. […] Different concentrations of Pep J (10-200 μM) and simvastatin (50-1000 nM) were tested as well as different treatment time periods (24-96 hours).
Organoid lysates were prepared for immunoblotting similar to FIG. 13G.

[7] = test system: CpD cells; assay: Clonogenic survival of mutant p53 driven CpD cells; conditions: for differential activity in reducing clonogenic survival of CpD cells: CpD versus CpA; for cytotoxic effect on either cell type: CpA and CpD cells
Experimental: The effects of different siRNAs (e.g., GRAIL Iso1-1, GRAIL Iso1-2, TP53) on clonogenic survival of different BE (CpA, CpD) and EAC (Flo1, OE19, and OE33) cell lines were determined by normalizing the survival fraction of control siRNA-treated group as 1.
For this purpose, two BE cell lines were used, CpA (with wild type p53) and CpD (carrying mutant p53). […] In brief, 3000 cells in 100 μl of complete medium were plated per well in a 96-well plate 24 h prior to peptide treatments. Cells were then either treated with vehicle (dH2O) or serial dilutions of peptides. Two days following treatments MTT labelling reagent was added, and cells were allowed to form formazan crystals for 2 h. Following, 100 μl of solubilizing agent (10% SDS in 0.01M HCl) was added per well, and plates were incubated at 37° C. overnight. The optical density (OD) of the solubilized formazan was spectrophotometrically quantified using a plate reader at 570 nm with a reference at 650 nm. Data represent the mean (±standard error, SE) performed in quadruplicate, and percent cell viabilities are plotted in semi-logarithmic scale relative to water treated control.

[8] = test system: EAC cells (Flo1, OE19, and OE33); assay: Cell viability (MTT) of EAC cell lines; assay type: cell-based
[9] = test system: mutant p53 and EGFR; assay: Immunoblotting of mutant p53 and EGFR levels in BE/EAC cells; assay type: cell-based
[10] = test system: chaperone activity (Fluc-DM); assay: Fluc-DM luciferase reporter of cellular chaperone activity; assay type: cell-based; conditions: 20 μM peptide, overnight
Experimental: As Frag J/J^m overexpression locks DNAJA1-Hsp70 complex, whether such interactions inhibit chaperone activity was tested. […] To understand the in vivo effects of the Frag J or different peptides in multiple cell lines including BE/EAC and p53 isogenic lines, cells were first transfected/co-transfected with Fluc-DM±Frag J constructs. Twenty-four hours post-transfection, cells were either subjected to luciferase assay or for peptide treatment studies, cells were treated with 20 μM concentrations of different peptides. After overnight incubation, cell lysates were prepared using lysis buffer provided in the luciferase assay kit in Promega luciferase assay system (cat. E1910) followed by standardized protocol as provided by the manufacturer. […] Such observation was confirmed by an in vitro chaperone activity assay using recombinant purified Hsp40-Hsp70 complex (FIG. 6D). In Fluc-DM study, loss of Fluc-DM levels following Frag J/J^m overexpression (FIG. 6E) was noted as shown using immunoblotting. Such effects were independent of p53 mutation status.

[11] = test system: DNAJA1; assay: Thermal stability assay (TSA) with purified DNAJA1; assay type: binding; conditions: TAT-less peptides, 0-500 μM
Experimental: (§1) Briefly, 1 mg of peptide was dissolved in 1 ml of coupling buffer (0.2 M NaHCO3, 0.5 M NaCl, pH 8.3). Peptides were conjugated to NHS-activated resin by incubating 100 μL NHS bead slurry with 200 μL peptide solution for 2 hours at room temperature (RT). Unbound sites were blocked with quenching buffer (0.5 M ethanolamine, 500 mM NaCl). Resin peptide conjugates were washed once with low pH (0.1 M acetate, 0.5 M NaCl, pH 5) and high pH buffer (0.1 M Tris HCl, pH 8.0) and equilibrated with lysis buffer 50 mM HEPES, 150 mM NaCl, 0.2% NP-40, protease inhibitor cocktail, pH 7.5. Purified HSP40 protein was procured from Boston Scientific (cat #). Purified protein was diluted in lysis buffer. Approximately 40 nM protein was incubated with peptide coupled to NHS beads and incubated for 2 hours at RT. Unbound proteins were removed by centrifugation and beads were washed with washing buffer (50 mM HEPES, 300 mM NaCl, 0.2% NP-40, pH 7.5). Bound proteins were obtained by boiling beads with 1× Laemmli buffer. […] To confirm, thermal stability assays (TSA) were performed. TSA was carried out using QuantStudio™ 7 Flex Real-Time PCR System. […] The plates were covered with optical foil during the reaction in the thermal cycler. […] The Instrument was programmed in the melt curve mode with ROX reagent detection and Fast speed run. […] Melting temperature was calculated using the melt curve. […]

[12] = biological target: Hsp40-Hsp70 (Homo sapiens, UniProt P31689); assay: In vitro Hsp40-Hsp70 ATPase (chaperone) activity assay; assay type: biochemical; conditions: TAT-less peptides, dose-dependent
Experimental: as §1

[13] = test system: OE19; conditions: OE19 cells

RTS*-Cy5.5: Cy5.5-labeled peptide RTSPSSR, specific for claudin-1
fluorescence intensity from implanted colonic PDO [1]: strong intensity

LGIEVDVEDG [Pep 29, TAT-less Pep 12; Frag J amino acids 11-20]
interaction with purified DNAJA1 in peptide pull down [2]: no interaction

GRKKRRQRRRPQCKVPPWRQ [Pep 8]
mutant p53-R175H protein levels [3]: decrease in mutant p53 levels

CC[C@H](C)[C@H](NC(=O)[C@H](CC(=O)O)NC(=O)[C@H](CS)NC(=O)[C@H](CCCCN)NC(=O)[C@H](CS)NC(=O)[C@H](CCSC)NC(=O)[C@@H]1CCCN1C(=O)[C@H](CCC(N)=O)NC(=O)[C@@H]1CCCN1C(=O)[C@H](CCCNC(=N)N)NC(=O)[C@H](CCCNC(=N)N)NC(=O)[C@H](CCCNC(=N)N)NC(=O)[C@H](CCC(N)=O)NC(=O)[C@H](CCCNC(=N)N)NC(=O)[C@H](CCCNC(=N)N)NC(=O)[C@H](CCCCN)NC(=O)[C@H](CCCCN)NC(=O)[C@H](CCCNC(=N)N)NC(=O)CN)C(=O)N[C@@H](CC(C)C)C(=O)N[C@@H](CCCCN)C(=O)N[C@@H](C)C(=O)O [Pep 1] (H-GRKKRRQRRRPQPMCKCDILKA-OH; N-terminus and C-terminus assumed)
interaction with purified DNAJA1 in peptide pull down [2]: showed interactions
killing of PDOs ([4]; 7 days treatment in vitro): killed PDOs
size of organoid growth ([4]; after 72 h of treatment): No major effect
radiosensitization [5]: radiosensitized
mutant p53 (nuclear) levels by immunofluorescence ([6]; FFPE fixed and sectioned organoids, 72 h, listed as Pep J): significant reduction
reduction in mutant p53 levels ([6]; immunoblotting of whole PDO lysis, 72 hours of treatment): 50%
misfolded mutant p53 levels in PDOs ([6]; within 24 h post treatment): loss of misfolded mutant p53
differential activity in reducing clonogenic survival of CpD cells [7]: better differential activity
effect on EAC cell lines [8]: relatively more resistant
mutant p53-R175H protein levels [3]: highly effective; also recorded: decrease in mutant p53 levels
impact on p53 and EGFR levels in wild type p53 cells ([9]; CpA cells): no major impact
EGFR levels ([9]; CpD and OE33 cells): reduces
mutant p53 levels ([9]; CpD and OE33 cells): reduces
inhibition of chaperone activity (Fluc-DM) [10]: inhibition of chaperone activity; also recorded: capable of inhibiting chaperone activity

PMCKVPPWRQ [Pep 27, TAT-less Pep 5]
interaction with purified DNAJA1 in peptide pull down [2]: bound effectively

PMCKCDILKA [Pep 26, TAT-less Pep 1; Frag J amino acids 1-10]
thermal stability assay result with DNAJA1 [11]: showed the best result; also recorded: better interactor
interaction with purified DNAJA1 in peptide pull down [2]: bound effectively
inhibition of Hsp40-Hsp70 chaperoning (ATPase) activity [12]: best efficacy; also recorded: most effect agent

GRKKRRQRRRPQPMCKATPWRE [Pep 4]
mutant p53-R175H protein levels [3]: decrease in mutant p53 levels

N=C(N)NCCC[C@H](NC(=O)CN)C(=O)N[C@@H](CCCCN)C(=O)N[C@@H](CCCCN)C(=O)N[C@@H](CCCNC(=N)N)C(=O)N[C@@H](CCCNC(=N)N)C(=O)N[C@@H](CCC(N)=O)C(=O)N[C@@H](CCCNC(=N)N)C(=O)N[C@@H](CCCNC(=N)N)C(=O)N[C@@H](CCCNC(=N)N)C(=O)N[C@@H](CCCNC(=N)N)C(=O)N1CCC[C@H]1C(=O)N[C@@H](CCC(N)=O)C(=O)O [Pep 13, GRKKRRQRRRRPQ]
cytotoxic effect on either cell type [7]: least cytotoxic effect

GRKKRRQRRRPQPMCKVPPWRQ [Pep 5]
pIC50 [13]: 4.71
differential activity in reducing clonogenic survival of CpD cells [7]: better differential activity
pIC50 ([7]; read-out: IC50, clonogenic survival, CpD cells (mutant p53)): 4.95 and ~4.96
effect on EAC cell lines [8]: relatively more resistant
mutant p53-R175H protein levels [3]: highly effective; also recorded: decrease in mutant p53 levels
inhibition of chaperone activity (Fluc-DM) [10]: inhibition of chaperone activity; also recorded: capable of inhibiting chaperone activity

GRKKRRQRRRPQLGIEVDVEDG [Pep 12]
cytotoxic effect on either cell type [7]: least cytotoxic effect; also recorded: list effects

GRKKRRQRRRPQPMCKVPPWR [Pep 7]
mutant p53-R175H protein levels [3]: decrease in mutant p53 levels

CKVPPWR [Pep 28, TAT-less Pep 9]
interaction with purified DNAJA1 in peptide pull down [2]: bound effectively

GRKKRRQRRRPQCKVPPWR [Pep 9]
differential activity in reducing clonogenic survival of CpD cells [7]: better differential activity
mutant p53-R175H protein levels [3]: highly effective; also recorded: decrease in mutant p53 levels
inhibition of chaperone activity (Fluc-DM) [10]: inhibition of chaperone activity; also recorded: capable of inhibiting chaperone activity
